# Where two headings read alike, the source gives them in different places.
# Key:
# Phytophthora infestans [1] = format: in vivo, Phytophthora infestans on tomato; conditions: hydrazone 50 ppm + 50 μM CuCl2.2H2O, applied 24 h before inoculation, assessed 7 days after inoculation, tomato
# [2] = system: Leptosphaeria nodorum (LEPTNO); test: In vitro fungitoxicity of hydrazones with and without copper towards Leptosphaeria nodorum (Example 26); format: cell-based; conditions: for inhibition of growth at 0.05 µg/mL: Parastagonospora nodorum, 72 h, copper-minus medium, read-out: LEPTNO % Inhn. Minus Copper Observed; for inhibition of growth at 0.05 µg/mL / LEPTNO % Inhn. Plus Copper Observed: compound 0.05 μg/mL, 72 h at 25° C.; for LEPTNO % Inhn. Plus Copper Observed: copper-plus medium (CuCl2.2H2O)
# [3] = system: Leptosphaeria nodorum (LEPTNO); test: Isolated metal-hydrazone complexes versus parent hydrazones, in vitro, Leptosphaeria nodorum (Example 31, Table 7); format: cell-based; conditions: Parastagonospora nodorum; 0.1 μg/mL; copper-minus medium; 72 h
# [4] = system: Leptosphaeria nodorum (glume blotch of wheat); test: Cu-hydrazone complexes versus parent hydrazones against glume blotch of wheat (Example 32, Table 8); format: in vivo, Leptosphaeria nodorum on wheat (cultivar Yuma); conditions: Parastagonospora nodorum, 200 ppm spray, inoculated after 24 h
# Ustilago maydis = test: In vitro fungitoxicity of hydrazones with and without copper towards Ustilago maydis (Example 29, Table 4); format: cell-based
# Phytophthora capsici [5] = test: In vitro fungitoxicity of hydrazones with and without copper towards Phytophthora capsici (Example 28, Table 3); format: cell-based; conditions: for % Inhn Plus copper Observed: copper-plus AS medium (CuCl2, 50 μM)
# [6] = system: Septoria tritici isolate USA-184; test: In vitro fungitoxicity of hydrazones with and without copper towards Septoria tritici (Example 30, Table 5); format: cell-based; conditions: for inhibition at 0.05 µg/mL: Zymoseptoria tritici, 0.05 μg/mL
# [7] = system: Leptosphaeria nodorum (LEPTNO); test: Fungitoxicity of copper-hydrazone mixtures of different ratios towards Leptosphaeria nodorum (Example 35, Table 11); format: cell-based
# Protocol: In vitro fungitoxicity assays against LEPTNO were conducted using the copper-minus medium described in Example 26. Mixtures containing hydrazone compound 16 at 200 nM and CuCl2 at 0.2 μM (1:1 molar ratio), 0.8 μM (1:4 ratio), 12.5 μM (1:62.5 ratio) and 200 μM (1:1000 ratio) were prepared in copper-minus medium. Two-fold dilution series of these mixtures were then prepared in 100 μL aliquots of copper-minus medium in flat-bottomed 96-well microtiter plates. A suspension of LEPTNO spores in copper-minus medium at 2×10^5 spores per mL was prepared as in Example 26. Microtiter plates were inoculated with 100 μL of the spore suspension and the plates were incubated at 25° C. for 72 h before assessing fungal growth by measuring light scattering in a NepheloStar plate reader.
# (§1) Growth inhibition was determined by comparing growth in the presence of copper-hydrazone mixture with growth in control wells lacking the copper-hydrazone mixture. EC50 values were calculated from dose-response curves, and are expressed as the amounts of hydrazone or copper in each test mixture at the rates providing 50% inhibition of growth as compared to a control lacking the copper-hydrazone mixture.
# Phytophthora capsici [8] = test: Fungitoxicity of copper-hydrazone mixtures of different ratios towards Phytophthora capsici (Example 36, Table 12); format: cell-based
# Protocol: In vitro fungitoxicity assays against Phytophthora capsici were conducted using the copper-minus AS medium described in Example 28. Mixtures containing hydrazone compound 16 at 200 nM and CuCl2.2H2O at 0.2 μM (1:1 molar ratio), 0.8 μM (1:4 ratio), 3.2 μM (1:16 ratio), 12.5 μM (1:62.5 ratio), 50 μM (1:200 ratio) and 200 μM (1:1000 ratio) were prepared in copper-minus AS medium. Two-fold dilution series of these mixtures were then prepared in 100 μL aliquots of copper-minus AS medium in flat-bottomed 96-well microtiter plates. A suspension of P. capsici zoospores in Chelex-treated water at 5×10^4 spores per mL was prepared as in Example 28. Microtiter plates were inoculated with 100 μL of the spore suspension and incubated at 25° C. for 48 h before assessing fungal growth by measuring light scattering in a NepheloStar plate reader.
# as §1
# [9] = system: Leptosphaeria nodorum (LEPTNO); test: Effect of copper on fungitoxicity of metal-hydrazone complexes towards Leptosphaeria nodorum (Example 33, Table 9); format: cell-based; conditions: CuCl2, 10 μM, no test compound, across experiments
# Phytophthora capsici [10] = test: Effect of copper on fungitoxicity of metal-hydrazone complexes towards Phytophthora capsici (Example 34, Table 10); format: cell-based; conditions: CuCl2, 50 μM, no test compound, across experiments
# Phytophthora infestans [11] = format: in vivo, Phytophthora infestans on tomato; conditions: Late blight, 160 μM
# Phytophthora infestans [12] = format: in vivo, Phytophthora infestans on tomato (Outdoor Girl); conditions: no hydrazone
# Plasmopara viticola = system: Plasmopara viticola; set-up: species or system Plasmopara viticola on grape; conditions: in vivo
# [13] = Phytophthora capsici, 0.039 μg/mL, copper-minus AS medium, 48 h, read-out: % Inhn Minus copper Observed
# [14] = CuCl2 without hydrazone, read-out: CuCl2 EC50
# [15] = mixture with hydrazone compound 16, Hydrazone:Cu ratio 1 to 1, read-out: CuCl2 EC50 (amount of CuCl2 in mixture at EC50)
# [16] = mixture with hydrazone compound 16, Hydrazone:Cu ratio 1 to 4, read-out: CuCl2 EC50 (amount of CuCl2 in mixture at EC50)
# [17] = mixture with hydrazone compound 16, Hydrazone:Cu ratio 1 to 62.5, read-out: CuCl2 EC50 (amount of CuCl2 in mixture at EC50)
# [18] = mixture with hydrazone compound 16, Hydrazone:Cu ratio 1 to 1000, read-out: CuCl2 EC50 (amount of CuCl2 in mixture at EC50)
structure (smiles),measurement,setting,value
O=C(N/N=C/c1cc(Cl)cc(Cl)c1O)c1ccc([N+](=O)[O-])cc1 [Example 76],TLB % Control,Phytophthora infestans [1],89.8%
same,inhibition of growth at 0.05 µg/mL,[2],0%
same,LEPTNO % Inhn. Plus Copper Observed,[2],97.0%
same,inhibition at 0.1 µg/mL,[3],92.8%
same,pest or weed control at 200 ppm,[4],0%
O=C(N/N=C/c1cc(Cl)cc(Cl)c1O)c1ccccc1O [Example 69],% Inhn. Plus copper Observed,"Ustilago maydis; 1 μg/mL, copper-plus medium (CuCl2, 10 μM), 48 h",96.2%
same,inhibition of growth at 1 µg/mL,"Ustilago maydis; Mycosarcoma maydis, 1 μg/mL, copper-minus medium, 48 h, read-out: % Inhn. Minus copper Observed",0%
same,TLB % Control,Phytophthora infestans [1],90.8%
same,inhibition of growth at 0.05 µg/mL,[2],19.3%
same,LEPTNO % Inhn. Plus Copper Observed,[2],96.9%
same,inhibition at 0.1 µg/mL,[3],32.4%
same,pest or weed control at 200 ppm,[4],25%
same,% Inhn Plus copper Observed,"Phytophthora capsici [5]; 0.050 μg/mL, 48 h",87.6%
same,inhibition of growth at 0.05 µg/mL,"Phytophthora capsici [5]; Phytophthora capsici, 0.050 μg/mL, copper-minus AS medium, 48 h, read-out: % Inhn Minus copper Observed",0%
same,inhibition at 0.05 µg/mL,"[6]; Colby formula, CuCl2, read-out: % Inhibition Plus copper Predicted",0%
same,inhibition at 0.05 µg/mL,"[6]; copper-minus medium, 90 h, read-out: % Inhibition Minus copper Observed",0%
same,inhibition at 0.05 µg/mL,"[6]; copper-plus medium CuCl2, 90 h, read-out: % Inhibition Plus copper Observed",96.7%
O=C(N/N=C/c1cc(Cl)cc(Cl)c1O)c1cc(Cl)ccc1Cl [Example 83],TLB % Control,Phytophthora infestans [1],60.6%
same,inhibition of growth at 0.05 µg/mL,[2],5.9%
same,LEPTNO % Inhn. Plus Copper Observed,[2],98.0%
same,melting point,,189 to 191 °C
same,inhibition at 0.1 µg/mL,[3],27.9%
same,pest or weed control at 200 ppm,[4],38%
same,% Inhn Plus copper Observed,"Phytophthora capsici [5]; 0.039 μg/mL, 48 h",96.2%
same,inhibition of growth at 0.039 µg/mL,Phytophthora capsici [5]; [13],27.9%
O=C(N/N=C/c1cc(Cl)cc(Cl)c1O)c1ccccc1[N+](=O)[O-] [Example 96],TLB % Control,Phytophthora infestans [1],78.2%
same,inhibition of growth at 0.05 µg/mL,[2],1.2%
same,LEPTNO % Inhn. Plus Copper Observed,[2],93.6%
same,inhibition at 0.1 µg/mL,[3],10.7%
same,pest or weed control at 200 ppm,[4],0%
same,% Inhn Plus copper Observed,"Phytophthora capsici [5]; 0.039 μg/mL, 48 h",91.9%
same,inhibition of growth at 0.039 µg/mL,Phytophthora capsici [5]; [13],55.2%
Cc1ccccc1C(=O)N/N=C/c1cc(Cl)cc(Cl)c1O [Example 77],TLB % Control,Phytophthora infestans [1],55.5%
same,inhibition of growth at 0.05 µg/mL,[2],7.6%
same,LEPTNO % Inhn. Plus Copper Observed,[2],96.1%
same,inhibition at 0.1 µg/mL,[3],10.6%
same,pest or weed control at 200 ppm,[4],0%
"O.O.[Cl][Cu][Cl] [CuCl2, CuCl2.2H2O, reference compound]",% Inhn. attributed to copper chloride alone,"Ustilago maydis; CuCl2, 10 μM, no test compound",11.9%
same,LEPTNO % Inhn. Plus Copper Observed (copper chloride alone),"[2]; CuCl2 10 μM alone, no test compound, copper-plus versus copper-minus medium across experiments",7.1 ± 6.0%
same,EC50,[7]; [14],118 µM
same,EC50,[7]; [15],0.072 µM
same,EC50,[7]; [16],0.172 µM
same,EC50,[7]; [17],1.77 µM
same,EC50,[7]; [18],14 µM
same,EC50,Phytophthora capsici [8]; [14],720 µM
same,EC50,Phytophthora capsici [8]; [15],0.071 µM
same,EC50,Phytophthora capsici [8]; [16],0.189 µM
same,EC50,"Phytophthora capsici [8]; mixture with hydrazone compound 16, Hydrazone:Cu ratio 1 to 16, read-out: CuCl2 EC50 (amount of CuCl2 in mixture at EC50)",0.441 µM
same,EC50,Phytophthora capsici [8]; [17],1.04 µM
same,EC50,"Phytophthora capsici [8]; mixture with hydrazone compound 16, Hydrazone:Cu ratio 1 to 250, read-out: CuCl2 EC50 (amount of CuCl2 in mixture at EC50)",1.9 µM
same,EC50,Phytophthora capsici [8]; [18],4.56 µM
same,% Inhn. attributed to copper chloride alone,[9],3.3%
same,% Inhn. attributed to copper chloride alone,Phytophthora capsici [10],4.6%
same,% Control Observed,Phytophthora infestans [11],69%
same,% Control of Tomato Late Blight,Phytophthora infestans [12]; CuCl2 10 μM alone,1.7%
same,% Control of Tomato Late Blight,Phytophthora infestans [12]; CuCl2 50 μM alone,8.5%
same,% Control of Tomato Late Blight,Phytophthora infestans [12]; CuCl2 200 μM alone,38.2%
same,% Control of Tomato Late Blight,Phytophthora infestans [12]; CuCl2 400 μM alone,56.0%
same,% Control of Tomato Late Blight,Phytophthora infestans [12]; CuCl2 800 μM alone,70.2%
same,% Inhn attributed to copper chloride alone,"Phytophthora capsici [5]; CuCl2, 50 μM, no test compound, across experiments",4.5 ± 7.9%
same,% Control Observed,Plasmopara viticola,1%
same,effect of copper chloride alone on growth,"[6]; 1 μM, no test compound",no effect on growth
same,% Inhibition attributed to copper chloride alone,"[6]; CuCl2, 1 μM, no test compound",0%

# — US20120010075A1 (priority 2009, published 2012)
